Source: PubChem BioAssay (NCI)
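Compound exposure: 48 hours, 5 concentrations, 96-well plates. GI50 marks 50% less growth. TGI: concentration producing complete growth inhibition.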

Experiments:
Test in all cases: inhibition of tumour cell growth, NCI panel, 48 h
COLO 205 colon = tested on: COLO 205 colon
SNB-75 CNS = tested on: SNB-75 CNS
ACHN renal = tested on: ACHN renal
HT29 colon = tested on: HT29 colon
NCI-H226 lung = tested on: NCI-H226 lung
RXF 393 renal = tested on: RXF 393 renal
SK-MEL-28 melanoma = tested on: SK-MEL-28 melanoma
786-0 renal = tested on: 786-0 renal
SR leukemia = tested on: SR leukemia
A549 NSCLC = tested on: A549 NSCLC

In the case of `Cc1ccc(/C(=N/Nc2ccc([N+](=O)[O-])cc2)Sc2cc(Cl)c(C)cc2S(N)(=O)=O)cc1`, the GI50 (COLO 205 colon) is reported as 2.98 µM, the TGI (COLO 205 colon) is reported as > 23.2 µM and the GI50 (SNB-75 CNS) is reported as 2.06 µM. The TGI (SNB-75 CNS) was 3.94 µM, the GI50 (ACHN renal) was 2.37 µM and the TGI (ACHN renal) was 6.51 µM. The GI50 (HT29 colon) was 1.31 µM, the TGI (HT29 colon) was 3.12 µM and the GI50 (NCI-H226 lung) was 1.64 µM. The TGI (NCI-H226 lung) was 3.57 µM, the GI50 (RXF 393 renal) was 2.01 µM and the TGI (RXF 393 renal) was 6.52 µM. For the same compound, the GI50 (SK-MEL-28 melanoma) was 3.03 µM, the TGI (SK-MEL-28 melanoma) was 8.9 µM and the GI50 (786-0 renal) was 1.82 µM. It also gave a TGI (786-0 renal) of 3.37 µM, a GI50 (SR leukemia) of 0.945 µM and a TGI (SR leukemia) of 3.55 µM. The GI50 (A549 NSCLC) was 2.55 µM and the TGI (A549 NSCLC) was 7.45 µM.
